In the supplement of paper PMC11451515:

Test system: P12-Ichikawa
Assay: cell viability relative to DMSO control; higher = less cytotoxic
Settings: 48 h
Outline: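 Viability is a per-plate percentage relative to DMSO wells, with cell-free wells as background. CellTiter-Glo One luminescence was read after 48 h at 37°C on 1536-well plates (5 μl) of NOMO1 or SEM (500 cells/well) or P12-Ichikawa (1000 cells/well) leukemia cells. The cells had been adapted for at least four passages in each medium and pin-dosed with library compounds in DMSO from 47 μM to 0.79 nM in 11 threefold steps.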

[1] = HPLM + 10% dialyzed FBS, 0.000781 µM
[2] = HPLM + 10% dialyzed FBS, 0.00234 µM
[3] = HPLM + 10% dialyzed FBS, 0.00702 µM
[4] = HPLM + 10% dialyzed FBS, 0.0211 µM
[5] = HPLM + 10% dialyzed FBS, 0.0632 µM
[6] = HPLM + 10% dialyzed FBS, 0.19 µM
[7] = HPLM + 10% dialyzed FBS, 0.569 µM
[8] = HPLM + 10% dialyzed FBS, 1.71 µM
[9] = HPLM + 10% dialyzed FBS, 5.12 µM
[10] = HPLM + 10% dialyzed FBS, 15.4 µM
[11] = HPLM + 10% dialyzed FBS, 46.1 µM
[12] = RPMI 5 mM glucose + 10% FBS, 0.000781 µM
[13] = RPMI 5 mM glucose + 10% FBS, 0.00234 µM
[14] = RPMI 5 mM glucose + 10% FBS, 0.00702 µM
[15] = RPMI 5 mM glucose + 10% FBS, 0.0211 µM
[16] = RPMI 5 mM glucose + 10% FBS, 0.0632 µM
[17] = RPMI 5 mM glucose + 10% FBS, 0.19 µM
[18] = RPMI 5 mM glucose + 10% FBS, 0.569 µM
[19] = RPMI 5 mM glucose + 10% FBS, 1.71 µM
[20] = RPMI 5 mM glucose + 10% FBS, 5.12 µM
[21] = RPMI 5 mM glucose + 10% FBS, 15.4 µM
[22] = RPMI 5 mM glucose + 10% FBS, 46.1 µM
[23] = RPMI 5 mM glucose + 10% dialyzed FBS, 0.000781 µM
[24] = RPMI 5 mM glucose + 10% dialyzed FBS, 0.00234 µM
[25] = RPMI 5 mM glucose + 10% dialyzed FBS, 0.00702 µM
[26] = RPMI 5 mM glucose + 10% dialyzed FBS, 0.0211 µM
[27] = RPMI 5 mM glucose + 10% dialyzed FBS, 0.0632 µM
[28] = RPMI 5 mM glucose + 10% dialyzed FBS, 0.19 µM
[29] = RPMI 5 mM glucose + 10% dialyzed FBS, 0.569 µM
[30] = RPMI 5 mM glucose + 10% dialyzed FBS, 1.71 µM
[31] = RPMI 5 mM glucose + 10% dialyzed FBS, 5.12 µM
[32] = RPMI 5 mM glucose + 10% dialyzed FBS, 15.4 µM
[33] = RPMI 5 mM glucose + 10% dialyzed FBS, 46.1 µM

Row | Structure (SMILES) | cell viability [1] [%] | cell viability [2] [%] | cell viability [3] [%] | cell viability [4] [%] | cell viability [5] [%] | cell viability [6] [%] | cell viability [7] [%] | cell viability [8] [%] | cell viability [9] [%] | cell viability [10] [%] | cell viability [11] [%] | cell viability [12] [%] | cell viability [13] [%] | cell viability [14] [%] | cell viability [15] [%] | cell viability [16] [%] | cell viability [17] [%] | cell viability [18] [%] | cell viability [19] [%] | cell viability [20] [%] | cell viability [21] [%] | cell viability [22] [%] | cell viability [23] [%] | cell viability [24] [%] | cell viability [25] [%] | cell viability [26] [%] | cell viability [27] [%] | cell viability [28] [%] | cell viability [29] [%] | cell viability [30] [%] | cell viability [31] [%] | cell viability [32] [%] | cell viability [33] [%]
1 | CC(C)(C#N)c1cc(Cn2cncn2)cc(C(C)(C)C#N)c1 | 120 | 119 | 117 | 119 | 117 | 116 | 115 | 115 | 113 | 108 | 97 | 130 | 118 | 121 | 129 | 120 | 124 | 128 | 131 | 113 | 112 | 112 | – | – | – | – | – | – | – | – | – | – | –
2 | C[C@]12CC[C@H]3[C@@H](CC[C@H]4NC(=O)\C=C/[C@]34C)[C@@H]1CC[C@@H]2C(=O)NC5=CC(=CC=C5C(F)(F)F)C(F)(F)F | 109 | 112 | 112 | 111 | 115 | 111 | 102 | 104 | 91.3 | 107 | 102 | 117 | 108 | 114 | 108 | 111 | 117 | 110 | 105 | 107 | 103 | 104 | 104 | 111 | 109 | 108 | 117 | 99.2 | 99.3 | 98.4 | 96.7 | 106 | 97.5
3 | COc1ccc([S+](=O)([O-])N(C(C)=O)c2ccccc2/C=C/c2cc[n+]([O-])cc2)cc1 | 119 | 125 | 118 | 121 | 125 | 118 | 116 | 64.9 | 24.5 | 25.1 | 10.5 | – | – | – | – | – | – | – | – | – | – | – | – | – | – | – | – | – | – | – | – | – | –
4 | C[C@](Cc1c[nH]c2ccccc12)(NC(=O)OC1C2CC3CC(C2)CC1C3)C(=O)NC[C@H](NC(=O)CCC(=O)O)c1ccccc1 (stereo partly specified) | 112 | 129 | 125 | 130 | 131 | 128 | 138 | 132 | 122 | 129 | 122 | – | – | – | – | – | – | – | – | – | – | – | – | – | – | – | – | – | – | – | – | – | –
5 | Cc1nn(Cc2ccccc2Cl)c(C)c1CN(C)CC(O)COc1ccc(Cl)cc1 (stereo unspecified) | 110 | 101 | 105 | 104 | 108 | 108 | 102 | 97.4 | 104 | 95.1 | 59.6 | 93.9 | 94.5 | 93 | 108 | 97 | 101 | 94.5 | 91.5 | 92.1 | 83.7 | 42.8 | 94 | 98.3 | 95.2 | 95.7 | 98.2 | 92.6 | 94.9 | 92.1 | 89.4 | 89.1 | 39.6
6 | CC(C)CNc1ccnc(NCc2csc(-c3ccccc3)n2)n1 | 110 | 123 | 128 | 132 | 130 | 132 | 127 | 115 | 101 | 96.3 | 63.6 | – | – | – | – | – | – | – | – | – | – | – | – | – | – | – | – | – | – | – | – | – | –
7 | C[C@@]12C(=O)OC(=O)[C@@]1(C)C1CCC2O1 | 106 | 103 | 106 | 112 | 111 | 108 | 109 | 92.2 | 90 | 13.2 | 12.4 | 110 | 102 | 102 | 109 | 106 | 98.9 | 103 | 102 | 92.3 | 8.07 | 6.24 | 104 | 111 | 109 | 104 | 105 | 109 | 105 | 97.5 | 93.3 | 10.6 | 7.9
8 | CCC[S+]([O-])c1ccc2[nH]c(NC(=O)OC)nc2c1 (stereo unspecified) | 98.5 | 101 | 95.7 | 96.5 | 101 | 92.7 | 102 | 91.3 | 89.5 | 25.3 | 22.6 | 84.2 | 89.9 | 89 | 89.2 | 89.7 | 93.9 | 99.8 | 85.7 | 82 | 51.1 | 27 | 92.9 | 98.8 | 87.7 | 91.2 | 95.7 | 87 | 86.3 | 84.3 | 90 | 63 | 34.7
9 | COc1ccc([C@@H]2CC(=O)c3c(O)cc(O[C@@H]4O[C@H](CO[C@@H]5O[C@@H](C)[C@H](O)[C@@H](O)[C@H]5O)[C@@H](O)[C@H](O)[C@H]4O)cc3O2)cc1O | 107 | 109 | 106 | 114 | 120 | 124 | 121 | 118 | 115 | 114 | 116 | 94.2 | 104 | 109 | 93.7 | 107 | 115 | 111 | 119 | 110 | 105 | 103 | 97.3 | 117 | 114 | 111 | 123 | 116 | 126 | 119 | 122 | 111 | 114
10 | O=C(Nc1cc(Cl)cc2c1[nH]c1cnccc12)c1cccnc1 | 116 | 121 | 123 | 121 | 121 | 122 | 127 | 115 | 121 | 113 | 106 | 124 | 118 | 118 | 129 | 119 | 116 | 117 | 118 | 114 | 114 | 109 | – | – | – | – | – | – | – | – | – | – | –
11 | COCC1(CO)C(=O)C2CCN1CC2 (stereo unspecified) | 90.6 | 103 | 105 | 112 | 108 | 109 | 85.3 | 103 | 81.9 | 37.7 | 4.42 | 92.7 | 109 | 109 | 110 | 106 | 117 | 95.2 | 104 | 77.8 | 53.6 | 6.98 | 103 | 104 | 109 | 115 | 107 | 112 | 96.4 | 101 | 81.8 | 64.2 | 23
12 | CN1CCN(C2=Nc3cc(Cl)ccc3Nc3ccccc32)CC1 | 102 | 105 | 108 | 108 | 91.6 | 115 | 116 | 116 | 106 | 104 | 94.4 | 91.6 | 120 | 115 | 120 | 95.8 | 125 | 107 | 115 | 124 | 108 | 108 | 100 | 103 | 103 | 102 | 96.7 | 112 | 109 | 116 | 105 | 108 | 93.2
13 | C[C@H](NC(=O)c1sccc1OCc1ccc(Cl)cc1)c1ccccc1 | 97.3 | 87.7 | 88.8 | 83.9 | 84.4 | 78 | 86.3 | 87.2 | 81.2 | 86.2 | 82.7 | 84.7 | 84.5 | 80.8 | 85.2 | 92 | 86.4 | 81 | 85 | 74.5 | 83.5 | 78 | 84.6 | 90 | 91.9 | 88.3 | 88.4 | 83.2 | 91.1 | 77.1 | 74.5 | 82.1 | 86
